What was measured:
conventional T cells = conditions: Kagoya et al. 2016; cited from earlier work
DNTs [1] = experiment: Effect of JQ1 on memory status of DNTs (flow cytometry of CD27, CD62L, CD45RA); type: cell-based, human; conditions: JQ1 0.075, 0.15, 0.30 μM for 20 days; day 14, 17 and 20 of DNT expansion
Excerpt: JQ1 was given to the culture on day 0, 3, 7, 10, 14, and 17.

[2] = autoimmune toxicities, infection, diarrhea, skin problems; cited from earlier work
DNTs [3] = experiment: Ex vivo DNT expansion in increasing concentrations of Ide; type: cell-based, human
Experimental: DNT was obtained and expanded as previously reported in the presence or absence of Ide (Selleckchem). Briefly, blood from healthy donor was collected in sodium heparin containing vacutainers (Becton, Dickinson and Company). Then, CD4^+ and CD8^+ T cells were depleted from healthy donor-derived PBMCs by incubating whole blood with RosetteSep human CD4 and CD8 depletion cocktail (StemCell Technologies) followed by density gradient centrifugation to collect CD4 and CD8 depleted buffy coats.

DNTs [4] = experiment: Exhaustion marker expression on DNTs (flow cytometry); type: cell-based, human
Excerpt: FIGS. 7A-7G. […] Representative flow plot is shown (Left). The numbers represent the MFI value (Right). […] Horizontal bars represent the mean relative MFI and error bars show SEM. (FIG. 7C) Expression of exhaustion associated transcription factor gene, TOX, relative to the expression of housekeeping gene, HPRT, determined by qPCR. Each paired symbol represents DNTs from one individual. […] Subsequently, cells were intracellularly stained with anti-TNFα and anti-IFNγ antibodies, and the expression levels were determined by flow cytometry. Representative flow plot is shown (Left). The numbers represent the frequency in each gate. […] The result shown is a summary of three experiments. (FIG. 7E) Frequency of viable ctrl-DNTs and Ide-DNTs on day 17 of expansion. The cell viability was determined with Annexin V and 7-AAD staining using flow cytometry. […] (FIG. 7F) Viability of ctrl-DNTs and Ide-DNTs after co-culture with primary AML cells from 7 different patients. […]
The following antibodies were used in this study: CD4-FITC or -APCcy7, CD56-PE, CD3-PEcy7 or -Alexa Flour700, CD8-APC or -APCcy7, CD45RA-FITC, CD95-APC, CD62L-PEcy7, CTLA4-PE, LAG3-PEcy7, TIM3-APC, CD45-FITC or -APCcy7, CD34-PE, CD33-APC, AnnexinV-Pacific Blue or -FITC, 7AAD, IFNy-PE, TNFα-APC and DAPI. […] Data were obtained using Attune NXT flow Cytometer (ThermoFisher) and analyzed with Flowjo software (Tree Star, Inc.).

DNTs [5] = experiment: CD69 expression on ex vivo expanded DNTs; type: cell-based, human; conditions: 0, 1 and 5 μM Ide; day 7, 10 and 17
Experimental: Frequency of CD69 expression from day 7, 10 and 17 ex vivo expanded DNTs in 0, 1 and 5 μM of de.

DNTs [6] = experiment: DNT viability (Annexin V, 7-AAD flow cytometry); type: cell-based, human; conditions: 5 healthy donors, day 17
Experimental: The result shown is a summary of three experiments. […] The cell viability was determined with Annexin V and 7-AAD staining using flow cytometry. […] Subsequently, the viability of DNTs (gated on CD45^high CD3^+CD33/CD34^−) were determined using flow cytometry. […] Each paired symbol represents DNTs from one donor.
and viability of effector cells was calculated by 100-% AnnexinV^+ in cultures of DNTs with AML.

DNTs [7] = experiment: Memory status of ex vivo expanded DNTs (CD45RA, CD62L flow cytometry); type: cell-based, human; conditions: end of expansion (day 17)
Excerpt: (FIG. 6A) Representative flow plots showing memory status. […] Tnaive/SCM=CD45RA^+CD62L^+; TCM=CD45RA^−CD62L^+; TEM=CD45RA^−CD62L; Teffector=CD45RA^+CD62L^−. (FIG. 6B) Frequency of DNTs in early memory subset TCM/SCM (CD45RA^+/CD62L^+ and CD45RA^−CD62L^+; left), TEM (CD45RA^−CD62L^−; middle) and TEFF (CD45RA^+CD62L^−; right) from day 7 to day 17 of ex vivo DNT expansion culture. […] Each dot represents DNTs from one donor. The cell number is normalized to day 0 DNT number. […] The expression shown is relative to the expression of housekeeping gene, HPRT. Each paired symbols represent DNTs from one donor. […] Expansion fold relative to the number of DNTs at the start of co-culture was determined after 2 days and 8 days (Left). Absolute number of viable DNTs from each treatment group after co-culture with OCI-AML3 (Right). […] (FIG. 6F) Memory status of DNTs 8 days post co-culture with OCI-AML3 determined by flow-cytometry. […]

expression of inhibitory receptor Lag3 on DNTs compared to ctrl-DNTs (DNTs [4])	expression of inhibitory receptor Tim3 on DNTs compared to ctrl-DNTs (DNTs [4])	Structure (SMILES)	inducing memory phenotype on conventional T cells (conventional T cells)	memory formation of DNTs across treatment groups (DNTs [1])	adverse events associated with Ide-treatment [2]	DNT viability at the end of cell expansion cultures (DNTs [3]; 1 μM Ide)	cell yield at the end of expansion compared to vehicle control (DNTs [3]; 0.1-1.0 μM Ide)	DNT expansion (DNTs [3]; 3.0-10.0 μM of Ide)	CD69 expression (DNT activation signal) (DNTs [5])	viability of DNTs after expansion (DNTs [6])	TCM/TSCM cell number, fold higher compared to ctrl-DNTs (DNTs [7]) [fold]
–	–	Cc1sc2c(c1C)C(c1ccc(Cl)cc1)=N[C@@H](CC(=O)OC(C)(C)C)c1nnc(C)n1-2 [JQ1]	top hit amongst 31 chemicals tested	no biologically meaningful differences	–	–	–	–	–	–	–
reduced the expression	reduced the expression	CC[C@H](Nc1ncnc2[nH]cnc12)c1nc2cccc(F)c2c(=O)n1-c1ccccc1 [Ide, 5-fluoro-3-phenyl-2-[(1S)-1-(7H-purin-6-ylamino)propyl]quinazolin-4-one]	–	–	severe adverse events	highest DNT viability	improved cell yield	compromised	reduced levels of CD69 expression in a dose-dependent manner	significantly improved the viability	3.87±0.82

Reference: patent US20260265691A1, “METHODS TO IMPROVE THE PERSISTENCE OF DOUBLE NEGATIVE T CELLS” (priority 2022, published 2026)
